# According to patent publication US8946218B2, “CCR2 receptor antagonists, method for producing the same, and use thereof as medicaments” (Boehringer Ingelheim International GmbH, priority 2010, dated 2015):
# Target: T1, CCR2 (Homo sapiens, UniProt P41597)
# T1 construct: Membranes were prepared from THP-1 cells; endogenous in cells; host or cells: THP-1 (human acute monocytic leukaemia cells), membrane preparation
# Experiment: Receptor membrane binding assay: [125I]MCP-1 binding to CCR2 on THP-1 cell membranes (SPA beads)
# Details: THP-1 membranes, [125I]MCP-1, bound radioactivity after 8 h; read-out: hKi
# Protocol: The above exemplary substances have been tested for binding to CCR2 using a binding assay as outlined herein below:
# THP-1 cells (human acute monocytic leukaemia cells) were cultured under standardized conditions at 37° C. and 5% CO2 in a humidified incubator. THP-1 cells were cultivated in RPMI 1640 medium (Gibco 21875) containing 1% MEM-NEAA (Gibso 11140) 2 mM L-glutamine, 1.5 g/L sodium bicarbonate, 4.5 g/L glucose, 10 mM HEPES and 1.0 mM sodium pyruvate, 90%; 10% fetal calf serum (FCS Gibco 10500-064).
# Membranes were prepared from THP-1 cells. THP-1 cells were centrifuged at 300×g at 4° C. for 10 min. The cell pellet was resuspended in Phosphate Buffer Saline (PBS, including 10 μM Pefabloc and a protease inhibitor mix ‘complete’, Boehringer Mannheim (1 tablet/50 ml)), to a concentration of […]. The membrane preparation was performed by disrupting the cells by nitrogen […] (at 50 bar, for 1 h) in a “Nitrogen Bombe” (Parr Instrument). Cell debris was removed by centrifugation (800×g at 4° C., 1 min). The supernatant was centrifuged at 80000×g, 4° C. for 30 min to sediment the cell membranes. Usually 50 mg of protein (Bradford assay) were yielded from 1×10E9 cells. The membranes were resuspended in 25 mM HEPES, 25 mM MgCl2, 1 mM CaCl2, 10% Glycerine for storage in aliquots at −80° C. in 25 mM HEPES, 25 mM MgCl2, 1 mM CaCl2, 10% Glycerine and stored at −80° C.
# Receptor Membrane Binding Assay:
# Perkin Elmer NEX 332 Jod 125 MCP-1, Stock: 2200 Ci/mmol solved in 2000 μl assay buffer, stored at −20° C. THP-1 membrane were adjusted with 25 mM HEPES, pH 7.2; 5 mM MgCl2; 0.5 mM CaCl2; 0.2% BSA assay buffer to a concentration of 2.5 μg/15 μl. Amersham Biosciences PVT-WGA Beads (RPNQ0001) were adjusted with assay buffer to a concentration of 0.24 mg/30 μl. For preparation of the membrane-bead-suspension membranes and beads were incubated for 30 min at RT under rotation (60 rpm) with a ratio of 1:2. Test compounds dissolved in 100% DMSO to a concentration of 10 mM and are further diluted with 100% DMSO to 1 mM. All additional compound dilutions were obtained with assay buffer, final 1% DMSO. Compounds, membrane-bead-suspension and [125I]MCP-1 (ca. 25000 cpm/10 μl) were incubated. Bound radioactivity was determined by scintillation counter after 8 h. Determination of affinity of test compounds (dissociation constant hKi) is calculated by iterative fitting of experimental data using the “easy sys” program, which is based on law of mass action (Schittkowski K. (1994), Numerische Mathematik, Vol. 68, 129-142).
# T1 sequence (P41597 whole entry): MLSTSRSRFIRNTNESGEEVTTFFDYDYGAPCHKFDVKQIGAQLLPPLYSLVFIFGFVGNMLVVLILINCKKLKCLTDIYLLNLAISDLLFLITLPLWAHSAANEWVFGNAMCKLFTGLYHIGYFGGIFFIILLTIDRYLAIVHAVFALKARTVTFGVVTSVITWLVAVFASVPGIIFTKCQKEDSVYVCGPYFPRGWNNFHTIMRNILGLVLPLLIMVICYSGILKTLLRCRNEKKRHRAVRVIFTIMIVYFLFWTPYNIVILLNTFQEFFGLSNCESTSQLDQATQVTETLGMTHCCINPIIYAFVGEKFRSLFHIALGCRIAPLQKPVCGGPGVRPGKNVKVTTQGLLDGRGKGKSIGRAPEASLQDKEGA
row,SMILES,Ki [nM]
1,CO[C@H]1COCC[C@H]1NC1CCN(C(=O)c2nccc(Nc3cccc(C(F)(F)F)c3)c2C)CC1 [Example 28],10
2,COC1COCCC1NC1CCN(C(=O)c2ncnc(Nc3cccc(C(F)(F)F)c3)c2C)CC1 (stereo not drawn) [Example 1],16
3,COc1nc(Nc2ccc(Cl)c(Cl)c2)c(C)c(C(=O)N2CCC(N[C@H]3CCOC[C@H]3OC)CC2)n1 [Example 33a],0.5
4,COc1ccc2ccc(Nc3ncnc(C(=O)N4CCC(N[C@H]5CCOC[C@H]5OC)CC4)c3C)cc2c1 [Example 37],15
5,COC1COCCC1NC1CCN(C(=O)c2ncnc(Nc3ccc(Br)cc3)c2C)CC1 (stereo not drawn) [Example 15],30
6,COC1COCCC1NC1CCN(C(=O)c2ncnc(Nc3cc(C(F)(F)F)cc(C(F)(F)F)c3)c2C)CC1 (stereo not drawn) [Example 2],121
7,COC1COCCC1NC1CCN(C(=O)c2ncnc(Nc3ccccc3Cl)c2C)CC1 (stereo not drawn) [Example 17],5180
8,Cc1c(Nc2ccc(Cl)c(Cl)c2)ncnc1C(=O)N1CCC(NC2CCOCC2)CC1 [Example 33l],6
9,COc1nc(Nc2cccc(C(F)(F)F)c2)c(C)c(C(=O)N2CCC(N[C@@H]3CCOC[C@@H]3OC)CC2)n1 [Example 33i],3
